Experiments:
[1] = target: T1, PARG (Homo sapiens, UniProt Q86W56); assay: In vitro inhibition of PARG; assay type: biochemical; parameters: H. sapiens full length PARG; trigger factor (TF) fusion of the pColdTF vector; made in house; host or cells: Rosetta2 (DE3) E. coli; settings: dose-response, FIG. 4C
[2] = target: T1, PARG; assay: Substrate hydrolysis in U2OS cell lysate in presence of PARG inhibitor PDD00017273; assay type: biochemical; parameters: endogenous in cells; host or cells: U2OS (parental and ARH3 knockout) lysate
Procedure: (§1) The ability of TFMU-IDPr to selectively report on ARH3 activity within the cellular milieu would be an important application of these probes. […] First, the hydrolysis of TFMU-IDPr was evaluated in cell lysate from a ARH3 knockout isogenic cell line pair derived from U2OS cells. […] Second, substrate processing was evaluated in the presence of the selective PARG inhibitor PDD00017273. […] Taken together, these experiments indicate that TFMU-IDPr is selectively cleaved by ARH3 in cell lysate, and TFMU-ADPr is cleaved only by ARH3 and PARG.
(§2) Cells were cultured in T75 flasks in appropriate medium. Cells were trypsinized, and scrapped (if necessary), and counted. 1×10^6 cells were harvested and washed with cold PBS 2×. Cell pellet was lysed by addition of activity lysis buffer (150 μL) and incubated on ice for 30 min. Lysate was clarified by centrifugation at 14,300×g at 4° C. for 10 min. Supernatant was transferred to chilled, empty 500 μL tube. Total protein content of lysate was evaluated by BCA assay. ARH3 expression level was determined by western blotting analysis. 5 μL lysate was added to well of 384-well black plate. 45 μL TFMU-IDPr (200 μM final) in reaction buffer was added to well. Reaction progress was monitored by fluorescent plate reader (ex 385 nm, cutoff 495, em 502 nm, 6 reads/well, high gain).

[3] = target: T2, T. thermophila PARG (Tetrahymena thermophila, UniProt I6L8L7); assay type: biochemical; settings: ttPARG
T2 construct: made in house; host or cells: Rosetta2 (DE3) E. coli
T2 sequence (I6L8L7 1-457): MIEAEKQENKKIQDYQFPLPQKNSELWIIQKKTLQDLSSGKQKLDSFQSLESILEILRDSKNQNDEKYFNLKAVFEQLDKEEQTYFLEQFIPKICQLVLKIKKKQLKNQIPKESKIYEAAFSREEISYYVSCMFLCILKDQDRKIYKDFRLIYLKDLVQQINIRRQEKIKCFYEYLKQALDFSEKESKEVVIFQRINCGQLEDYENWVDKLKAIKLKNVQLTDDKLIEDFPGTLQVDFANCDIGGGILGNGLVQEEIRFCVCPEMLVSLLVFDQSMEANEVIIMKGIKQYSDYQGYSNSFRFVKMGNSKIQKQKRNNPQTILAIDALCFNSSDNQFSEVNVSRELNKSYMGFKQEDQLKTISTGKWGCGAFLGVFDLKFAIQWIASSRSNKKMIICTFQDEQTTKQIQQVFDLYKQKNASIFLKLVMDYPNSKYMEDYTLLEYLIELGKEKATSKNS

[4] = leaving groups pNP and TFMU; cited from earlier work
[5] = target: T3, H. sapiens full length ARH3 (Homo sapiens, UniProt Q9NX46); assay: In vitro enzyme kinetics of substrate hydrolysis
T3 sequence (Q9NX46 1-363): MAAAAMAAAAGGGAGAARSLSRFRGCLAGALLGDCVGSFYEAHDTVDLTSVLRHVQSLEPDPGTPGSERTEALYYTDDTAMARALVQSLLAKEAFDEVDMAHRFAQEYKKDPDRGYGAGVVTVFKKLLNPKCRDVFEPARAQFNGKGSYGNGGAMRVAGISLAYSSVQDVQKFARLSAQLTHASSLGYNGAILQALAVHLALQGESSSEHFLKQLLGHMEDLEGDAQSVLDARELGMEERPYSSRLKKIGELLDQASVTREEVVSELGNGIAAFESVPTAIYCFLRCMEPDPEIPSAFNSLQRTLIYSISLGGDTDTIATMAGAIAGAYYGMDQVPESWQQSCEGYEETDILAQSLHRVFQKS

[6] = target: T4, ARH3 (Homo sapiens, UniProt Q9NX46); assay: In vitro inhibition of purified ARH3; assay type: biochemical; parameters: H. sapiens full length ARH3; His6 (N); made in house; host or cells: Rosetta2 (DE3) E. coli; settings: mixture of anomers
T4 sequence (Q9NX46 1-363): T3 sequence (Q9NX46 1-363)

[7] = target: T5, H. sapiens full length PARG (Homo sapiens, UniProt Q86W56); assay: In vitro enzyme kinetics of substrate hydrolysis; assay type: biochemical; settings: hPARG
T5 construct: H. sapiens full length PARG; trigger factor (TF) fusion of the pColdTF vector; made in house; host or cells: Rosetta2 (DE3) E. coli

[8] = test system: ARH3; assay: Substrate hydrolysis in lysate of ARH3 knockout U2OS cells; assay type: biochemical; settings: U2OS cell lysate, 200 μM substrate
Procedure: as §1, §2

[9] = test system: ARH3; assay: Cell lysate ARH3 activity assay (survey of cell lines, TFMU-IDPr hydrolysis); assay type: biochemical; settings: MEF cell lysate, 200 μM TFMU-IDPr
Procedure: (§3) Cells were cultured in T75 flasks in appropriate medium. Cells were trypsinized, and scrapped (if necessary), and counted. 1×10^6 cells were harvested and washed with cold PBS 2×. Cell pellet was lysed by addition of activity lysis buffer (150 μL) and incubated on ice for 30 min. Lysate was clarified by centrifugation at 14,300×g at 4° C. for 10 min. Supernatant was transferred to chilled, empty 500 μL tube. Total protein content of lysate was evaluated by BCA assay. […] Reaction progress was monitored by fluorescent plate reader (ex 385 nm, cutoff 495, em 502 nm, 6 reads/well, high gain).

[10] = target: T4, ARH3; assay: as above; assay type: biochemical; parameters: endogenous in cells; settings: 200 μM TFMU-IDPr
Procedure: as §3

[11] = substrate: O=c1[nH]cnc2c1ncn2[C@@H]1OC(COP(=O)(O)OP(=O)(O)OCC2OC(Oc3ccc([N+](=O)[O-])cc3)[C@H](O)[C@@H]2O)[C@@H](O)[C@H]1O; assay: purified protein, by the assay type; settings: other: hARH3
[12] = substrate: O=c1cc(C(F)(F)F)c2ccc(O[C@H]3O[C@H](COP(=O)(O)OP(=O)(O)OC[C@H]4O[C@@H](n5cnc6c(=O)[nH]cnc65)[C@H](O)[C@@H]4O)[C@@H](O)[C@H]3O)cc2o1; assay: purified protein, by the assay type; settings: other: hARH3

T1 sequence (Q86W56 whole entry, the tested form may be a part): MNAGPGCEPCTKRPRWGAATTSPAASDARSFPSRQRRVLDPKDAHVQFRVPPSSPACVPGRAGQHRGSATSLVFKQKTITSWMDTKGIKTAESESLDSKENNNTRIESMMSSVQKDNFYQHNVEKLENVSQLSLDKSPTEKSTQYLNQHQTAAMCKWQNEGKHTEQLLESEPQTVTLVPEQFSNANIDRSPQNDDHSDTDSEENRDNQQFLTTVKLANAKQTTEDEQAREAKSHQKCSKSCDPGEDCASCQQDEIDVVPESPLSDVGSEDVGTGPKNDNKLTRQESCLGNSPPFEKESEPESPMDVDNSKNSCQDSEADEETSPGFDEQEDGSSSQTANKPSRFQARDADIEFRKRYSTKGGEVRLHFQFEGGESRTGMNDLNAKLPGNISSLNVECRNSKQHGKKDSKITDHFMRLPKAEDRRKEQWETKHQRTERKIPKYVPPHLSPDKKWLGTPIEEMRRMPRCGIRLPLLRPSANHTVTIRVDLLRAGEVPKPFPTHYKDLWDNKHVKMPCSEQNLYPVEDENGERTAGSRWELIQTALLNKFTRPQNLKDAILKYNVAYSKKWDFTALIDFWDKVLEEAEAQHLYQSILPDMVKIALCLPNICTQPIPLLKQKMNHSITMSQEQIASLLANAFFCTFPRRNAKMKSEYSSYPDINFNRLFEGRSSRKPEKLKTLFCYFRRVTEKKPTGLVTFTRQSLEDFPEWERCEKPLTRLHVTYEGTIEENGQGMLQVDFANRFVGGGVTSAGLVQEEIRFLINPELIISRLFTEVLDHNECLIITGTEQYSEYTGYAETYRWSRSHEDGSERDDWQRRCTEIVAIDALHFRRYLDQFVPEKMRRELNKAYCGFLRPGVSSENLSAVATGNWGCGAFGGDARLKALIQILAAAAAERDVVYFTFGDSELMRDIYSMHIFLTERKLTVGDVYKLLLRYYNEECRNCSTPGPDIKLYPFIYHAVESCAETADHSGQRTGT
T5 sequence (Q86W56 whole entry, the tested form may be a part): as above

Nc1ncnc2c1ncn2[C@@H]1O[C@H](COP(=O)(O)OP(=O)(O)OC[C@H]2NC[C@H](O)[C@@H]2O)[C@@H](O)[C@H]1O [ADP-HPD]
inhibition of PARG [1]: inhibits both PARG and ARH3

PDD00017273 [reference compound]
inhibition of TFMU-ADPr hydrolysis ([2]; ARH3−/− U2OS cell lysate, 200 μM TFMU-ADPr): completely abolished

Nc1ncnc2c1ncn2[C@@H]1O[C@H](COP(=O)(O)OP(=O)(O)OC[C@H]2O[C@@H](Oc3ccc([N+](=O)[O-])cc3)[C@H](O)[C@@H]2O)[C@@H](O)[C@H]1O [pNP-ADPr]
Km [3]: 210 ± 10 µM | Vmax [3]: 16.9 ± 0.5 µmol/min/mg | stereoselectivity of hydrolysis, α versus β anomer ([3]; FIG. 5C): selectively hydrolyzed the α anomer of pNP-ADPr over the β anomer | pKa of the leaving group [4]: 7.15 | Km ([5]; hARH3): 3.2 ± 0.6 µM | Vmax ([5]; hARH3): 1.7 ± 0.1 µmol/min/mg | stereoselectivity of hydrolysis, α versus β anomer ([5]; hARH3, FIG. 5D): selectively hydrolyzed the α anomer of pNP-ADPr over the β anomer

N=C(NCCCC(N)C(=O)O)NC1OC(COP(=O)(O)OP(=O)(O)OCC2OC(n3cnc4c(N)ncnc43)C(O)C2O)C(O)C1O (stereo not shown) [ADPr-Arg, ADP-ribosyl arginine]
Ki [6]: 18 ± 2 nM | inhibition of PARG [1]: markedly reduced activity against PARG

O=c1[nH]cnc2c1ncn2[C@@H]1OC(COP(=O)(O)OP(=O)(O)OCC2OC(Oc3ccc([N+](=O)[O-])cc3)[C@H](O)[C@@H]2O)[C@@H](O)[C@H]1O (stereo partly shown) [pNP-IDPr]
Km [3]: > 1500 µM

Nc1ncnc2c1ncn2[C@@H]1O[C@H](COP(=O)(O)OP(=O)(O)OC[C@H]2O[C@H](Oc3ccc4c(C(F)(F)F)cc(=O)oc4c3)[C@H](O)[C@@H]2O)[C@@H](O)[C@H]1O [TFMU-ADPr]
Vmax [7]: 0.84 ± 0.05 µmol/min/mg | Vmax [3]: 28.6 ± 0.6 µmol/min/mg | effect of ARH3 knockout on substrate hydrolysis [8]: only partially decreased | pKa of the leaving group [4]: 7.26 | Vmax ([5]; hARH3): 1.61 ± 0.02 µmol/min/mg

O=c1cc(C(F)(F)F)c2ccc(O[C@H]3O[C@H](COP(=O)(O)OP(=O)(O)OC[C@H]4O[C@@H](n5cnc6c(=O)[nH]cnc65)[C@H](O)[C@@H]4O)[C@@H](O)[C@H]3O)cc2o1 [TFMU-IDPr]
Km [7]: > 1500 µM | Km [3]: > 1500 µM | ARH3 Activity [9]: 153 ± 38 milli-units/min/μg | effect of ARH3 knockout on substrate hydrolysis [8]: near complete loss | ARH3 Activity ([10]; A549 cell lysate): 67 ± 23 milli-units/min/μg | ARH3 Activity ([10]; D54 cell lysate): 147 ± 34 milli-units/min/μg | ARH3 Activity ([10]; Daudi cell lysate): 27 ± 35 milli-units/min/μg | ARH3 Activity ([10]; HCC38 cell lysate): 100 ± 19 milli-units/min/μg | ARH3 Activity ([10]; HCC1937 cell lysate): 76 ± 4 milli-units/min/μg | ARH3 Activity ([10]; HCT-116 cell lysate): 173 ± 17 milli-units/min/μg | ARH3 Activity ([10]; HEK cell lysate): 192 ± 20 milli-units/min/μg | ARH3 Activity ([10]; HFF-1 cell lysate): 105 ± 20 milli-units/min/μg | ARH3 Activity ([10]; HeLa cell lysate): 159 ± 18 milli-units/min/μg | ARH3 Activity ([10]; HepG2 cell lysate): 215 ± 19 milli-units/min/μg | ARH3 Activity ([10]; Hs578t cell lysate): 170 ± 34 milli-units/min/μg | ARH3 Activity ([10]; Jurkat cell lysate): 36 ± 7 milli-units/min/μg | ARH3 Activity ([10]; MCF 7 cell lysate): 92 ± 40 milli-units/min/μg | ARH3 Activity ([10]; MCF10A cell lysate (grown with cholera toxin)): −5 ± 12 milli-units/min/μg | ARH3 Activity ([10]; MIA PaCa-2 cell lysate): 157 ± 25 milli-units/min/μg | ARH3 Activity ([10]; SK-MEL-5 cell lysate): 87 ± 13 milli-units/min/μg | ARH3 Activity ([10]; T98G cell lysate): 139 ± 7 milli-units/min/μg | ARH3 Activity ([10]; U87 cell lysate): 290 ± 52 milli-units/min/μg | ARH3 Activity ([10]; U937 cell lysate): 137 ± 34 milli-units/min/μg | selectivity for processing by ARH3 over PARG ([5]; human ARH3 over human PARG, FIG. 2C): confirmed | substrate hydrolysis in presence of PARG inhibitor PDD00017273 ([2]; U2OS cell lysate, 200 μM TFMU-IDPr): unaffected

B1: H. sapiens full length ARH3 (Homo sapiens) (protein)
chain: T3 sequence (Q9NX46 1-363)
Km [11]: 410 ± 20 µM | Vmax [11]: 5.2 µmol/min/mg | Km [12]: 312 ± 30 µM | Vmax [12]: 1.79 µmol/min/mg

Source: US12235275B2, “Fluorescent substrates for poly(ADP-ribosyl) hydrolases” (The Board of Trustees of the University of Illinois, priority 2018, dated 2025)
